Patent publication US20230045421A1 (priority 2018, published 2023)
Where two headings read alike, the source gives them in different places.

Tested on: HBV rcDNA
Assay: HepDE19 assay with bDNA quantitation of HBV rcDNA
Format: cell-based, hepatitis B virus
Outline: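 HepDE19 cells (HepG2-derived, Tet-regulated HBV replication) were deprived of tetracycline and then exposed to compounds for 7 days at 37 °C in 0.5% DMSO, 8-point titration from 25 μM. rcDNA was quantified by bDNA and EC50/EC90 came from 4-parameter fits. CC50 was measured by CellTiter-Glo ATP content on replicate plates after 4 days.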

[1] = HepDE19 assay, inhibition of formation of rcDNA, read-out: DE-19bDNA EC50
[2] = Hepatitis B virus, HepDE19, HepDE19 assay, inhibition of formation of rcDNA, read-out: DE-19bDNA EC50
[3] = HepDE19 assay, inhibition of formation of relaxed circular DNA (rcDNA), bDNA quantitation, read-out: DE-19bDNA EC50

Structure (SMILES)	EC50 [1]	EC50 [3]	further results
CC(c1c[nH]c(=O)c2c(F)c(F)ccc12)N(C)C(=O)N[C@H](C)c1ccccc1 (single isomer, unassigned) [Compound 488]	–	–	EC50 (Hepatitis B virus, HepDE19, read-out: DE-19bDNA EC50 (μM), HepDE19 assay, inhibition of formation of relaxed circular DNA (rcDNA), bDNA quantitation): 9 µM
CCNc1ncc(C(C)N(C)C(=O)Nc2ccc(F)c(Cl)c2)c2ccccc12 (single isomer, unassigned) [Compound 240, 3-(3-Chloro-4-fluorophenyl)-1-(1-(1-(ethylamino)isoquinolin-4-yl)ethyl)-1-methylurea]	11.5 µM	–	–
CC(c1c[nH]c(=O)c2ccccc12)N(CCCN)C(=O)Nc1ccc(F)c(Cl)c1 (single isomer, unassigned) [Compound 164, 1-(3-Aminopropyl)-3-(3-chloro-4-fluorophenyl)-1-(1-(1-oxo-1,2-dihydroisoquinolin-4-yl)ethyl)urea]	–	–	EC50 [2]: 12 µM
CC(C)CN(C(=O)Nc1ccc(F)c(Cl)c1)C(C)c1cnc(-n2cncn2)c2ccccc12 (racemic) [Compound 300, 1-(1-(1-(1H-1,2,4-triazol-1-yl)isoquinolin-4-yl)ethyl)-3-(3-chloro-4-fluorophenyl)-1-isobutylurea]	–	–	EC50 (Hepatitis B virus, HepDE19, HepDE19 assay, inhibition of formation of relaxed circular DNA (rcDNA), bDNA quantitation, read-out: DE-19bDNA EC50): 0.02 µM
CC(c1c[nH]c(=O)c2nccnc12)N(C)C(=O)Nc1ccc(F)c(Cl)c1 (racemic) [Compound 148, 3-(3-chloro-4-fluorophenyl)-1-methyl-1-(1-(5-oxo-5,6-dihydropyrido[3,4-b]pyrazin-8-yl)ethyl)urea]	–	–	EC50 [2]: 15 µM
CC(c1c[nH]c(=O)c2cc(F)c(F)cc12)N(CCS(N)(=O)=O)C(=O)Nc1ccc(F)c(Cl)c1 (single isomer, unassigned) [Compound 386, 2-(3-(3-Chloro-4-fluorophenyl)-1-(1-(6,7-difluoro-1-oxo-1,2-dihydroisoquinolin-4-yl)ethyl)ureido) ethane-1-sulfonamide]	–	0.011 µM	–
CC(c1c[nH]c(=O)c2cc(F)c(F)cc12)N(C)C(=O)Nc1ccc(Cl)cc1 (single isomer, unassigned) [Compound 401, 3-(4-Chlorophenyl)-1-(1-(6,7-difluoro-1-oxo-1,2-dihydroisoquinolin-4-yl)ethyl)-1-methylurea]	–	–	EC50 (read-out: DE-19bDNA EC50, HepDE19 assay, inhibition of formation of relaxed circular DNA (rcDNA), bDNA quantitation): 0.09 µM
CC(c1c[nH]c(=O)c2c(F)cccc12)N(CCCO)C(=O)Nc1ccc(F)c(Cl)c1 (single isomer, unassigned) [Compound 367, 3-(3-Chloro-4-fluorophenyl)-1-(1-(8-fluoro-1-oxo-1,2-dihydroisoquinolin-4-yl)ethyl)-1-(3-hydroxypropyl)urea]	–	0.008 µM	–
O=C(Nc1ccc(F)c(Cl)c1)N(Cc1c[nH]c(=O)c2ccccc12)C1CC1 [Compound 42, 3-(3-Chloro-4-fluorophenyl)-1-cyclopropyl-1-((1-oxo-1,2-dihydroisoquinolin-4-yl)methyl)urea]	–	–	EC50 [2]: 0.81 µM
CC(c1c[nH]c(=O)c2ccccc12)N(CCNCC(F)F)C(=O)Nc1ccc(F)c(Cl)c1 (single isomer, unassigned) [Compound 198, 3-(3-Chloro-4-fluorophenyl)-1-(2-((2,2-difluoroethyl)amino)ethyl)-1-(1-(1-oxo-1,2-dihydroisoquinolin-4-yl)ethyl)urea]	11.9 µM	–	–
CNc1ncc(C(C)N(C)C(=O)Nc2ccc(F)c(Cl)c2)c2ccccc12 (single isomer, unassigned) [Compound 231, 3-(3-Chloro-4-fluorophenyl)-1-methyl-1-(1-(1-(methylamino)isoquinolin-4-yl)ethyl)urea]	12 µM	–	–
CC(C)CN(C(=O)Nc1ccc(F)c(Cl)c1)C(C)c1c[nH]c(=O)c2c(F)cc(F)cc12 (single isomer, unassigned) [Compound 446, 3-(3-Chloro-4-fluorophenyl)-1-(1-(6,8-difluoro-1-oxo-1,2-dihydroisoquinolin-4-yl)ethyl)-1-isobutylurea]	–	0.59 µM	–
CC(c1c[nH]c(=O)c2cc(F)ccc12)N(CCS(N)(=O)=O)C(=O)Nc1ccc(F)c(Cl)c1 (single isomer, unassigned) [Compound 384, 2-(3-(3-Chloro-4-fluorophenyl)-1-(1-(7-fluoro-1-oxo-1,2-dihydroisoquinolin-4-yl)ethyl)ureido) ethane-1-sulfonamide]	–	0.01 µM	–
CC(c1cn(C)c(=O)c2c(F)c(F)ccc12)N(C)C(=O)Nc1ccc(F)c(Cl)c1 (single isomer, unassigned) [Compound 333, 3-(3-Chloro-4-fluorophenyl)-1-(1-(7,8-difluoro-2-methyl-1-oxo-1,2-dihydroisoquinolin-4-yl)ethyl)-1-methylurea]	–	0.013 µM	–
CCN(C(=O)Nc1ccc(F)c(Cl)c1)C(c1c[nH]c(=O)c2ccccc12)C(C)C (single isomer, unassigned) [Compound 55, 3-(3-Chloro-4-fluorophenyl)-1-ethyl-1-(2-methyl-1-(1-oxo-1,2-dihydroisoquinolin-4-yl)propyl)urea]	–	–	EC50 (read-out: DE-19bDNA EC50, HepDE19 assay, inhibition of formation of rcDNA): 11 µM
CC(c1c[nH]c(=O)c2ccc(F)cc12)N(C)C(=O)Nc1ccc(F)c(Cl)c1 (single isomer, unassigned) [Compound 170, 3-(3-Chloro-4-fluorophenyl)-1-(1-(6-fluoro-1-oxo-1,2-dihydroisoquinolin-4-yl)ethyl)-1-methylurea]	0.03 µM	–	–
CC(c1c[nH]c(=O)c2c(F)cccc12)N(C)C(=O)Nc1ccc(F)c(Cl)c1 (single isomer, unassigned) [Compound 356, 3-(3-Chloro-4-fluorophenyl)-1-(1-(8-fluoro-1-oxo-1,2-dihydroisoquinolin-4-yl)ethyl)-1-methylurea]	–	1.9 µM	–
CC(c1cnc(OCc2ncn(C)n2)c2ccccc12)N(CCCO)C(=O)Nc1ccc(F)c(Cl)c1 (single isomer, unassigned) [Compound 256, 3-(3-Chloro-4-fluorophenyl)-1-(3-hydroxypropyl)-1-(1-(1-((1-methyl-1H-1,2,4-triazol-3-yl)methoxy)isoquinolin-4-yl)ethyl)urea]	0.013 µM	–	–
CC(C)CN(C(=O)Nc1ccc(F)c(Cl)c1)C(C)c1cn(CC(F)(F)F)c(=O)c2ccccc12 (racemic) [Compound 229, 3-(3-Chloro-4-fluorophenyl)-1-isobutyl-1-(1-(1-oxo-2-(2,2,2-trifluoroethyl)-1,2-dihydroisoquinolin-4-yl)ethyl)urea]	–	–	EC50 [2]: 0.07 µM
CNc1ncc(C(C)N(C)C(=O)Nc2ccc(F)c(Cl)c2)c2ccccc12 (single isomer, unassigned) [Compound 232, 3-(3-Chloro-4-fluorophenyl)-1-methyl-1-(1-(1-(methylamino)isoquinolin-4-yl)ethyl)urea]	0.12 µM	–	–
CC(c1c[nH]c(=O)c2ccccc12)N(CC1COC(C)(C)OC1)C(=O)Nc1ccc(F)c(Cl)c1 (single isomer, unassigned) [Compound 272, 3-(3-Chloro-4-fluorophenyl)-1-((2,2-dimethyl-1,3-dioxan-5-yl)methyl)-1-(1-(1-oxo-1,2-dihydroisoquinolin-4-yl)ethyl)urea]	1.8 µM	–	–
CC(c1c[nH]c(=O)c2ccccc12)N(CC1CCCC1)C(=O)Nc1ccc(F)c(Cl)c1 (single isomer, unassigned) [Compound 193, 3-(3-Chloro-4-fluorophenyl)-1-(cyclopentylmethyl)-1-(1-(1-oxo-1,2-dihydroisoquinolin-4-yl)ethyl)urea]	0.01 µM	–	–
CC(=O)NCCN(C(=O)Nc1ccc(F)c(Cl)c1)C(C)c1c[nH]c(=O)c2ccccc12 (racemic) [Compound 100, N-(2-(3-(3-chloro-4-fluorophenyl)-1-(1-(1-oxo-1,2-dihydroisoquinolin-4-yl)ethyl)ureido)ethyl)acetamide]	–	–	EC50 [2]: 1 µM
CC(c1c[nH]c(=O)c2c(Cl)cccc12)N(C)C(=O)Nc1ccc(F)c(Cl)c1 (single isomer, unassigned) [Compound 168, 1-(1-(8-Chloro-1-oxo-1,2-dihydroisoquinolin-4-yl)ethyl)-3-(3-chloro-4-fluorophenyl)-1-methylurea]	0.07 µM	–	–
COc1ncc(C(CCO)NC(=O)Nc2ccc(F)c(Cl)c2)c2ccccc12 (single isomer, unassigned) [Compound 77, 1-(3-Chloro-4-fluorophenyl)-3-(3-hydroxy-1-(1-methoxyisoquinolin-4-yl)propyl)urea]	7.4 µM	–	–
CC(c1c[nH]c(=O)c2ccccc12)N(CCO)C(=O)Nc1ccc(F)c(Cl)c1 (single isomer, unassigned) [Compound 196, 3-(3-Chloro-4-fluorophenyl)-1-(2-hydroxyethyl)-1-(1-(1-oxo-1,2-dihydroisoquinolin-4-yl)ethyl)urea]	20 µM	–	–
CC(c1c[nH]c(=O)c2c(F)c(F)ccc12)N(C)C(=O)NCc1cc(F)c(F)c(F)c1 (single isomer, unassigned) [Compound 494, 1-(1-(7,8-Difluoro-1-oxo-1,2-dihydroisoquinolin-4-yl)ethyl)-1-methyl-3-(3,4,5-trifluorobenzyl)urea]	–	0.89 µM	–
CC(c1c[nH]c(=O)c2c(F)c(F)ccc12)N(C)C(=O)Nc1ccc2cc[nH]c2c1 (single isomer, unassigned) [Compound 499, 1-(1-(7,8-Difluoro-1-oxo-1,2-dihydroisoquinolin-4-yl)ethyl)-3-(1H-indol-6-yl)-1-methylurea]	–	0.3 µM	–
CC(c1c[nH]c(=O)c2ccccc12)N(CC1CCOC1)C(=O)Nc1ccc(F)c(Cl)c1 (stereo not drawn) [Compound 165]	–	–	EC50 [2]: 1.4 µM
CC(C)CN(C(=O)Nc1ccc(F)c(Cl)c1)C(C)c1c[nH]c(=O)c2c(F)c(F)ccc12 (single isomer, unassigned) [Compound 339, 3-(3-Chloro-4-fluorophenyl)-1-(1-(7,8-difluoro-1-oxo-1,2-dihydroisoquinolin-4-yl)ethyl)-1-isobutylurea]	–	0.005 µM	–
